Laboratory results reported in patent US12565514B2, “Nucleic acid containing perfluoroalkyl group, and method for its production” (AGC Inc., priority 2019, dated 2026).
{C5-PFC} = N[C5-PFC] unit carrying a C5 perfluoroalkyl group, added by phosphoramidite

Test system: HeLa cells
Test: Cellular uptake of fluorescein-modified nucleic acids by flow cytometry
Format: cell-based
Conditions: single-stranded nucleic acid with fluorescein at 3′-end, 2.5 μM in DMEM, incubated 4 or 24 hours
Procedure: HeLa cells were cultured in Dulbecco's modified Eagle's medium (DMEM, Thermo Fischer Scientific) supplemented with 10% FBS and 0.5% penicillin/streptomycin in a humidified atmosphere (5 volume % CO2) at 37° C. Cells for image analysis were cultured in a 35 mm glass bottom dish (manufactured by IWAKI).
HeLa cells were seeded in 12-well plates at a density of 10^5 cells/well and cultured. On the day after seeding, the medium in each well was replaced with DMEM medium (1 mL) containing DNA (2.5 μM) modified with fluorescein-bound N[PFC] or N[PFPE], and incubated for 4 or 24 hours. Then, the cell layer in the wells was washed twice with PBS, and the cells were detached by treatment with 0.05% (w/v) trypsin (200 μL) at 37° C. for 5 min. The recovered cells were suspended in DMEM (600 μL). The cell suspension was separated by centrifugation process (400G, 3 min), and PBS/1% BSA (500 μL) was added. The percentage of fluorescent cells and the average fluorescence intensity of this cell suspension were analyzed by a flow cytometer (“guava easyCyte8”, manufactured by Luminex).
In the case of double-stranded DNA, a sample was denatured at 100° C. and annealed by slowly bringing it down to room temperature.
The nucleic acid having fluorescein bonded to the 3′-end of the N[C8-PFC]-modified DNA synthesized in Example 2 was, as a single strand or as a double strand, added to the culture medium of HeLa cells and incubated, whereby the efficiency of cellular uptake was examined by flow cytometry.
The nucleic acid having fluorescein bonded to the 3′-end of the N[C5-PFPE]-modified DNA synthesized in Example 1 was, as a single strand, added to the culture medium of HeLa cells and incubated, whereby the efficiency of cellular uptake was examined by flow cytometry.

| Substance | cellular uptake (flow cytometry) |
| --- | --- |
| 5′-(N[C5-PFC])2TTTTTCAGTTGACCATATA-3′ [F2] | higher cellular uptake than the fluorescein-modified nucleic acid of cont-DNA |
| 5′-(N[C5-PFC])5TTTTTCAGTTGACCATATA-3′ (DNA, 5' {C5-PFC}-{C5-PFC}-{C5-PFC}-{C5-PFC}-{C5-PFC}, backbone not given here) [F5] | higher cellular uptake than the fluorescein-modified nucleic acid of cont-DNA |
| 5′-(N[C5-PFC])TTTTCAGTTGACCATATA-3′ (DNA, 5' {C5-PFC}, backbone not given here) [F1] | no difference from the fluorescein-modified nucleic acid of cont-DNA |
